Here are results for 43 compounds from patent US7244727B2, “Fused bicyclic nitrogen-containing heterocycles” (Japan Tobacco Inc., priority 2002, dated 2007).

Bounds are passed on as bounds.

For series [1], the target named is T1, human DGAT1 (Homo sapiens, UniProt O75907).
T1 construct: made in house; host or cells: insect cells (sf9, sf21 or High Five) infected with baculovirus; total cell membranes
T1 sequence (O75907 1-488): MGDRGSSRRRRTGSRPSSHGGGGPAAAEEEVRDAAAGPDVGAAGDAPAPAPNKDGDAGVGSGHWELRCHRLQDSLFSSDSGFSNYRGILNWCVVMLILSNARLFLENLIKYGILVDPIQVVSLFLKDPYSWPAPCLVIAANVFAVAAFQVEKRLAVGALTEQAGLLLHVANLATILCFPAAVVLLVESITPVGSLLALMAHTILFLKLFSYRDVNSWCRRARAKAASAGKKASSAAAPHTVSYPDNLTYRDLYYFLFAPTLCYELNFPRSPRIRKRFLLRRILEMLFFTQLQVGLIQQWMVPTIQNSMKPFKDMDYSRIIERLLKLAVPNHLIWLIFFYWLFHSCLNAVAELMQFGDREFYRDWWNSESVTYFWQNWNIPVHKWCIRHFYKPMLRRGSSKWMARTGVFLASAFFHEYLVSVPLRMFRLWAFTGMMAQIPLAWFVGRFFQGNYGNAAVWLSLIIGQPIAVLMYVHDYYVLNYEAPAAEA
Nature of the series: DGAT Scintillation Proximity Assay (SPA) with membranes of insect cells expressing human flagtag DGAT1. In kind it is biochemical. The conditions noted are these: read-out: hDGAT1 IC50. The gist of the method: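 Membranes (0.2 μg/well) from insect cells expressing human flag-tagged DGAT1 incubated with 10 μM compound and 200 μM dioleoyl glycerol substrate; mercuric chloride as inhibition control. Reaction stopped with WGA SPA beads in mercuric chloride, overnight bead coupling, then scintillation proximity signal read.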
(In a scintillation proximity assay essentially only radioactivity close to the scintillant gives light.)

As usually defined, the IC50 is the midpoint of a concentration-inhibition curve. One may read the melting point as the temperature, or range, at which the solid turns liquid. Compound `Cc1nc(N)c2c(n1)OC(C)(C)C(c1ccc([C@H]3CC[C@H](CC(=O)N(C)CC(=O)O)CC3)cc1)=N2` [Example 2-143] showed a melting point of 196 to 198 °C. Moreover, the IC50 in series [1] was < 10 nM.
For `Cc1nc(N)c2c(n1)OC(C)(C)C(c1ccc([C@H]3CC[C@H](CC(=O)N(C)CC(N)=O)CC3)cc1)=N2` [Example 2-144] the same measures were > 230 °C and 10 to 100 nM.
For `Cc1nc(N)c2c(n1)OC(C)(C)C(c1ccc(C3CC(CC(=O)O)C3(C)C)cc1)=N2` (centres unmarked) [Example 2-145], in that order: > 250 °C and 10 to 100 nM.
For `Cc1nc(N)c2c(n1)OC(C)(C)C(c1ccc(C3CC(CC(=O)O)C3)cc1)=N2` (centres unmarked) [Example 2-146], in that order: > 250 °C and 10 to 100 nM.
Take `Cc1nc(N)c2c(n1)OC(C)(C)C(c1ccc([C@H]3CC[C@H](Cc4n[nH]c(=O)[nH]4)CC3)cc1)=N2` [Example 2-147]: the melting point is > 230 °C. The IC50 in series [1] fell in the range of 10 to 100 nM.
For `Cc1nc(N)c2c(n1)OC(C)(C)C(c1ccc([C@H]3CC[C@H](CC(=O)Cc4nn[nH]n4)CC3)cc1)=N2` [Example 2-148], in that order: > 250 °C and < 10 nM.
For `Cc1nc(N)c2c(n1)OC(C)(C)C(c1ccc(C3CC(CCC(=O)O)C3)cc1)=N2` (centres unmarked) [Example 2-149] the same measures were 237 to 238 °C and 10 to 100 nM.
For `Cc1nc(N)c2c(n1)OC(C)(C)C(c1ccc([C@H]3CC[C@H](CNC(=O)C(C)(C)O)CC3)cc1)=N2` [Example 2-150] the same measures were 228 to 229 °C and 10 to 100 nM.
For the compound `Cc1nc(N)c2c(n1)OC(C)(C)C(c1ccc([C@H]3CC[C@H](Cc4nc(=O)o[nH]4)CC3)cc1)=N2` [Example 2-151], the melting point is > 250 °C. For the same compound, the IC50 in series [1] was < 10 nM.
For `Cc1nc(N)c2c(n1)OC(C)(C)C(c1ccc([C@H]3CC[C@H](Cc4nc(=O)s[nH]4)CC3)cc1)=N2` [Example 2-152], the melting point is 225 to 226 °C. The IC50 in series [1] fell in the range of 10 to 100 nM.
The compound `CC1(C)Oc2nc(C(F)(F)F)nc(N)c2N=C1c1ccc([C@H]2CC[C@H](CNC(=O)CO)CC2)cc1` [Example 2-154] gave a melting point of 229 to 233 °C. Also, in series [1], the IC50 lay within 10 to 100 nM.
For `CCn1c(C[C@H]2CC[C@H](c3ccc(C4=Nc5c(N)nc(C)nc5OC4(C)C)cc3)CC2)n[nH]c1=O` [Example 2-156], in that order: > 250 °C and 10 to 100 nM.
For `Cc1nc(N)c2c(n1)OC(C)(C)C(c1ccc([C@H]3CC[C@H](CN4CCOC4=O)CC3)cc1)=N2` [Example 2-158], in that order: 240 to 241 °C and 10 to 100 nM.
For `Cc1nc(N)c2c(n1)OC(C)(C)C(c1ccc([C@H]3CC[C@H](CN4CC(=O)NC4=O)CC3)cc1)=N2` [Example 2-159] the same measures were 148 °C (dec.) and 10 to 100 nM.
The compound `Cc1nc(N)c2c(n1)OC(C)(C)C(c1ccc([C@H]3CC[C@H](CCNC(=O)CO)CC3)cc1)=N2` [Example 2-160] gave a melting point of 185 to 186 °C. In addition, the IC50 in series [1] is 10 to 100 nM.
For `Cc1nc(N)c2c(n1)OC(C)(C)C(c1ccc([C@H]3CC[C@H](CNC(N)=O)CC3)cc1)=N2` [Example 2-161] the same measures were 219 to 221 °C and 10 to 100 nM.
For `Cc1nc(N)c2c(n1)OC(C)(C)C(c1ccc([C@H]3CC[C@H](CNC4=NCCO4)CC3)cc1)=N2` [Example 2-162] the same measures were 216 to 250 °C and 10 to 100 nM.
For `Cc1nc(N)c2c(n1)OC(C)(C)C(c1ccc([C@H]3CC[C@H](CNC(=O)C(O)C(C)(C)CO)CC3)cc1)=N2` (some centres unmarked) [Example 2-163] the same measures were 219 to 221 °C and 10 to 100 nM.
Regarding `Cc1nc(N)c2c(n1)OC(C)(C)C(c1ccc([C@H]3CC[C@H](CNC(=O)C(O)CCO)CC3)cc1)=N2` (some centres unmarked) [Example 2-164], the melting point was 222 to 225 °C. In series [1], the IC50 fell in the range of 10 to 100 nM.
As for `Cc1nc(N)c2c(n1)OC(C)(C)C(c1ccc([C@H]3CC[C@H](Cc4cc(O)n(C)n4)CC3)cc1)=N2` [Example 2-165], the melting point was > 250 °C. Moreover, in series [1], the IC50 was in the range of 10 to 100 nM.
For `Cc1nc(N)c2c(n1)OC(C)(C)C(c1ccc([C@H]3CC[C@H](CN4CCC(O)C4=O)CC3)cc1)=N2` (some centres unmarked) [Example 2-166] the same measures were 225 to 233 °C and 10 to 100 nM.
As for `Cc1nc(N)c2c(n1)OC(C)(C)C(c1ccc([C@H]3CC[C@H](Cc4nc(=O)[nH]n4C)CC3)cc1)=N2` [Example 2-169], the melting point was > 230 °C. Also, the IC50 in series [1] lay in the range of 10 to 100 nM.
For `CC1(C)Oc2ncnc(N)c2N=C1c1ccc([C@H]2CC[C@H](CCc3cc(O)[nH]n3)CC2)cc1` [Example 2-172], in that order: > 250 °C and 10 to 100 nM.
Compound `CC1(C)Oc2ncnc(N)c2N=C1c1ccc([C@H]2CC[C@H](CCNS(C)(=O)=O)CC2)cc1` [Example 2-173] came in with a melting point of 218 to 219 °C. Besides, the 50% inhibitory concentration (IC50) in series [1] was in the range of 10 to 100 nM.
For `CC(=O)NCC[C@H]1CC[C@H](c2ccc(C3=Nc4c(N)ncnc4OC3(C)C)cc2)CC1` [Example 2-174] the same measures were 238 to 239 °C and 10 to 100 nM.
Compound `Cc1ccc(S(=O)(=O)NCC[C@H]2CC[C@H](c3ccc(C4=Nc5c(N)ncnc5OC4(C)C)cc3)CC2)cc1` [Example 2-175] had a melting point of 230 to 231 °C. For the same compound, in series [1], the IC50 lay within 10 to 100 nM.
The compound `CC1(C)Oc2ncnc(N)c2N=C1c1ccc([C@H]2CC[C@H](CCNC(=O)CO)CC2)cc1` [Example 2-176] had a melting point of 196 to 198 °C. For the same compound, in series [1], the IC50 lay in the range of 10 to 100 nM.
`CCCNC(=O)CC[C@H]1CC[C@H](c2ccc(C3=Nc4c(N)ncnc4OC3(C)C)cc2)CC1` [Example 2-177] came in with a melting point of 198 to 200 °C. In addition, in series [1], the IC50 lay within 10 to 100 nM.
For `CC1(C)Oc2ncnc(N)c2N=C1c1ccc([C@H]2CC[C@H](CCC(=O)N3CCC[C@H]3CO)CC2)cc1` [Example 2-178], in that order: 143 to 160 °C and 10 to 100 nM.
For `CN(CCO)C(=O)CC[C@H]1CC[C@H](c2ccc(C3=Nc4c(N)ncnc4OC3(C)C)cc2)CC1` [Example 2-179], in that order: 168 to 170 °C and 10 to 100 nM.
For `CC1(C)Oc2ncnc(N)c2N=C1c1ccc([C@H]2CC[C@H](CCC(=O)N3CCC(O)CC3)CC2)cc1` [Example 2-180], in that order: 200 to 202 °C and 10 to 100 nM.
`CC1(C)Oc2ncnc(N)c2N=C1c1ccc([C@H]2CC[C@H](CCNC(=O)[C@@H]3CCCN3)CC2)cc1` [Example 2-182] yielded a melting point of 167 to 169 °C. Moreover, the IC50 in series [1] was in the range of 10 to 100 nM.
For `CC1(C)Oc2ncnc(N)c2N=C1c1ccc([C@H]2CC[C@H](CCNC(=O)[C@@H]3C[C@@H](O)CN3)CC2)cc1` [Example 2-183], in that order: 201 to 203 °C and 10 to 100 nM.
For `Cc1csc(NCC[C@H]2CC[C@H](c3ccc(C4=Nc5c(N)ncnc5OC4(C)C)cc3)CC2)n1` [Example 2-184] the same measures were > 250 °C and 10 to 100 nM.
For `Cc1ncc(CC[C@H]2CC[C@H](c3ccc(C4=Nc5c(N)ncnc5OC4(C)C)cc3)CC2)[nH]1` [Example 2-185], in that order: 193 to 194 °C and 10 to 100 nM.
The compound `CN(C)C(=O)CC[C@H]1CC[C@H](c2ccc(C3=Nc4c(N)ncnc4OC3(C)C)cc2)CC1` [Example 2-186] showed a melting point of 200 to 201 °C. In addition, in series [1], the IC50 fell in the range of 10 to 100 nM.
For `CC(C)NC(=O)CC[C@H]1CC[C@H](c2ccc(C3=Nc4c(N)ncnc4OC3(C)C)cc2)CC1` [Example 2-187] the same measures were 206 to 208 °C and < 10 nM.
For `CCN(C)C(=O)CC[C@H]1CC[C@H](c2ccc(C3=Nc4c(N)ncnc4OC3(C)C)cc2)CC1` [Example 2-188], in that order: 173 to 175 °C and 10 to 100 nM.
For `CCN(CC)C(=O)CC[C@H]1CC[C@H](c2ccc(C3=Nc4c(N)ncnc4OC3(C)C)cc2)CC1` [Example 2-189], in that order: 192 to 194 °C and 10 to 100 nM.
Consider `CCCN(C)C(=O)CC[C@H]1CC[C@H](c2ccc(C3=Nc4c(N)ncnc4OC3(C)C)cc2)CC1` [Example 2-190], for which the melting point was in the range of 210 to 212 °C. For the same compound, in series [1], the IC50 is 10 to 100 nM.
For `Cc1nc(N)c2c(n1)OC(C)(C)C(c1ccc([C@H]3CC[C@H](CCC(=O)O)CC3)cc1)=N2` [Example 2-191] the same measures were > 250 °C and < 10 nM.
Regarding `Cc1nc(N)c2c(n1)OC(C)(C)C(c1ccc([C@H]3CC[C@H](CCC(=O)NS(C)(=O)=O)CC3)cc1)=N2` [Example 2-192], the melting point is > 250 °C. In addition, the IC50 in series [1] was < 10 nM.
On to `Cc1nc(N)c2c(n1)OC(C)(C)C(c1ccc([C@H]3CC[C@H](CCC(=O)NC(C)(C)CO)CC3)cc1)=N2` [Example 2-193], for which the melting point is > 240 °C. Moreover, the IC50 in series [1] fell in the range of 10 to 100 nM.
